Counter-ions that a name gives are not always drawn. Like-named read-outs stand apart in the source and are kept apart here.
Tests used:
L1210 leukemia = conditions: murine models; cited from earlier work
A2780 ovarian tumors = conditions: twice daily intra-peritoneal for 5-6 days at 8-10 mg/kg/dose; cited from earlier work
[1] = Phase 1 dose escalation: toxicity, DLT and MTD of Triapine with doxorubicin; type: in vivo, human
[2] = cited from earlier work
[3] = Triapine pharmacokinetics in plasma and erythrocytes; type: in vivo, human; conditions: for Tmax: 45 mg/m2, Tmax, Triapine 25 or 45 mg/m2, cycle 1 day 1
[4] = test system: Madison 109 (M109) lung tumors; conditions: twice daily intra-peritoneal for 5-6 days at 8-10 mg/kg/dose; cited from earlier work
[5] = cited from earlier work; remark: listed apart in the source
[6] = Doxorubicin pharmacokinetics in plasma; conditions: mean
clinical = conditions: human
[7] = 2 hour IV infusions for 5 days of every 28 day cycle
[8] = human, erythrocytes, intravenous

NC(=S)NN=Cc1ncccc1N [Triapine, 3-aminopyridine-2-carboxaldehyde thiosemicarbazone]
anti-tumor activity (L1210 leukemia): displayed anti-tumor activity | effect on tumors (A2780 ovarian tumors): effective | recommended phase II combination dose ([1]; Triapine 2 hour infusion on days 1-4): 25 mg/m^2 | major DLT ([2]; 2-hour infusion daily x 5 schedule): transient neutropenia | patients with grade 2 anemia [2, 7]: 73% | patients with grade 3 anemia [2, 7]: 22% | patients with grade 3 or 4 thrombocytopenia [2, 7]: 22% | patients with grade 4 leucopenia in at least one course [2, 7]: 93% | single-agent MTD [2, 7]: 96 mg/m^2 | toxicities associated with the infusion ([2]; 2 hour infusion of ≥ 140 mg/m^2): reversible hypotension, hypoxia, dyspnea, cough, and EKG changes including ST-T wave changes and prolongation of the QT interval | DLTs ([2]; single 2-hour IV infusion every 4 weeks, doses up to 105 mg/m^2): no DLTs were observed | anti-tumor activity ([2]; single 2-hour IV infusion every 4 weeks): no anti-tumor activity was observed | recommended phase II dose ([2]; single agent, daily for 4 days): 96 mg/m2 | Cmax ([3]; erythrocytes, dose adjusted, mean): 0.71 µg/mL | Cl ([3]; erythrocytes, mean): 0.34 mL/min/m^2 | Vss ([3]; erythrocytes, mean): 83 L/m^2 | AUC(0-inf) [3, 8]: 1450 ng·h/mL | Cmax [3, 8]: 0.71 ± 0.18 µg/mL | half-life ([3]; human, erythrocytes, intravenous, 45 mg/m2): 252 min | Tmax ([3]; human, erythrocytes, intravenous, erythrocytes, mean): 2.4 min | AUC(0-inf) ([3]; human, plasma, intravenous): 1210 ng·h/mL | Cmax ([3]; human, plasma, intravenous): 0.65 ± 0.18 µg/mL | Tmax ([3]; human, plasma, intravenous, plasma, mean): 13.2 ± 6.6 min | half-life ([3]; human, plasma, iv): 318 min | Cmax ([3]; plasma, dose adjusted, mean): 0.65 µg/mL | Cl ([3]; plasma, mean): 0.38 mL/min/m^2 | Vss ([3]; plasma, mean): 107 L/m^2 | effect on tumors [4]: effective

COc1cccc2c1C(=O)c1c(O)c3c(c(O)c1C2=O)C[C@@](O)(C(=O)CO)C[C@@H]3O[C@H]1C[C@H](N)[C@H](O)[C@H](C)O1 [doxorubicin, Doxorubicin hydrochloride]
incidence of CHF ([5]; cumulative dose 450 mg/m^2): 4% | incidence of CHF ([5]; cumulative dose up to 300 mg/m^2): 1% | patients with leucopenia ([5]; doxorubicin 60 mg/m^2 every 21 days): approximately 75% | recommended phase II combination dose ([1]; doxorubicin IV bolus on day 1 immediately following Triapine): 60 mg/m^2 | Cl [6]: 252 mL/min/m^2 | Vss [6]: 219 L/m^2 | half-life (clinical; in vivo, iv): 608 min | Tmax (clinical; plasma, intravenous): 12 min
